Broadly, the mass density is mass per unit of volume. As usually defined, the speed of sound is the propagation velocity of pressure waves in the medium.

The results in this text go back to the NIST ThermoML archive (doi:10.1021/je050294+).

The conditions of this data set: 101.33 kPa, Liquid; for speed of sound: Linear variable-path acoustic interferometer.

± gives the expanded uncertainty stated by the source.

In the case of `CCCCO` [butan-1-ol], the mass density was determined as 817.48 ± 0.23 kg/m3 (283.15 K), 806.17 ± 0.23 kg/m3 (298.15 K) and 794.51 ± 0.24 kg/m3 (313.15 K). The speed of sound reads like this: (283.15 K) 1292.2 ± 1.4 m/s; (298.15 K) 1240.7 ± 1.4 m/s; (313.15 K) 1191.4 ± 1.4 m/s.
As for `CCC(C)O` (stereo not drawn) [butan-2-ol], the mass density was 815.11 ± 0.59 kg/m3 (283.15 K), 803 ± 0.6 kg/m3 (298.15 K) and 790.06 ± 0.61 kg/m3 (313.15 K). Also, the speed of sound came out at 1266.6 ± 1.7 m/s (283.15 K), 1212.4 ± 1.7 m/s (298.15 K) and 1158 ± 1.7 m/s (313.15 K).
With `C=C1CCC2CC1C2(C)C` (stereo not drawn) [β-pinene], the mass density is listed as 878.97 ± 0.55 kg/m3 (283.15 K), 866.99 ± 0.55 kg/m3 (298.15 K) and 854.89 ± 0.56 kg/m3 (313.15 K). The speed of sound by setting is: (283.15 K) 1355.9 ± 1.8 m/s; (298.15 K) 1295 ± 1.8 m/s; (313.15 K) 1237.4 ± 1.7 m/s.
